We go through seven molecules from PMC8066339, “Optimization of 2-Acylaminocycloalkylthiophene Derivatives for Activity against Staphylococcus aureus RnpA” (Antibiotics, 2021).

Data set [1] deals with S. aureus. The arrangement: method as in PMID 21347352, PMID 25605356, PMID 31035380. Conditions: previously reported, Figure 1; cited from earlier work.
The test system of data set [2] is S. aureus strain UAMS-1. The arrangement: method as in Colquhoun et al. [34]. Conditions: ref Colquhoun et al. [34]; cited from earlier work.
Data set [3] can be described thus: MTT cytotoxicity testing. The settings on record: human, HEP G2 cells (human liver epithelial cells). The protocol: For the scaffold to have translational significance, it must be non-toxic to human cells. Accordingly, an initial assessment of toxicity was performed using human liver epithelial (HEP G2) cells via a 3-(4,5-dimethylthiazol-2-yl)-2,5-diphenyltetrazolium bromide (MTT) assay in the presence of up to 400 µM of each analog. […] Viability of 70% was used as the cut-off criteria for toxicity (Figure 4, dashed line), according to ISO guidelines, as described in Materials and Methods.
Human liver epithelial cells (HEP G2) were cultured in Dulbecco’s Modified Eagle Medium (DMEM; Fisher Scientific, Hampton, NH) supplemented with 10% heat inactivated fetal bovine serum (FBS; Corning Life Sciences) and 1% penicillin/streptomycin (Thermofisher Scientific). Cells were incubated at 37 °C with 5% CO2 in Nunc (Roskilde, Denmark) tissue culture flasks. Cells were grown in monolayers until exceeding 70% confluency, removed with 0.25% trypsin (Fisher Scientific), resuspended in fresh medium, and used to seed approximately 2.5 × 10^5 cells/mL into each well of a 96 well tissue culture microplate (Nunc) containing 200 µL of fresh medium. Cytotoxicity testing was conducted according to the guidelines of the International Organization for Standardization (ISO) 10993-5:2009. After 24 h of incubation, the cell media was removed, and adherent cells were washed with 1× phosphate buffered saline (PBS). Cell media was supplemented with 5% per volume of compound at final concentrations from 12.5 µM to 400 µM and incubated 20–24 h at 37 °C with 5% CO2. After incubation, medium supplemented with compound was removed from the wells and replaced with 100 µL of fresh culture medium. Then, 10 µL of 12 mM (3-(4,5-dimethylthiazol-2-yl)-2,5-diphenyltetrazolium bromide (MTT) stock reagent (CyQUANT MTT cell proliferation kit; Thermofisher Scientific) was added to each well. After labeling the cells with the MTT reagent, all but 25 µL of medium was removed from the wells, and 50 µL of DMSO was added to each well and mixed thoroughly and cells were incubated at 37 °C with 5% CO2 for 10 min. After incubation, wells were mixed again and using a SPECTRAmax5 microplate reader, absorbance was read at 540 nm. Cells were treated with 125 µg/mL mitomycin C (Fisher Scientific) to serve as a positive control and 2% DMSO as a negative control. […] All compounds were tested in two independent experiments in triplicate and cell viability was expressed as a percent of the negative control.
(In general: Formazan colour is commonly taken as a measure of viable cells.)

The subject of data set [4] is S. aureus UAMS-1. The data set can be described thus: Fractional inhibitory concentration (FIC) testing with mupirocin. Format: cell-based, Staphylococcus aureus. The settings on record: Staphylococcus aureus. The protocol:
Fractional inhibitory concentration (FIC) testing was performed, as previously described. Briefly, each well of a 96-well microtiter plate was inoculated with 10^4 CFU of S. aureus UAMS-1 [42]. Each row of the plate was supplemented with two-fold increasing concentrations of mupirocin (0 µg mL^−1 to 2 µg mL^−1) whereas each column contained two-fold increasing concentrations of putative RnpA inhibitor compound (0.03, 0.0625, 0.125, 0.25, 0.5, 1, or 2× MIC). […] The FIC index was defined by the following formula: FIC = (MIC of Drug A in Combination/MIC of Drug A Alone) + (MIC of Drug B in Combination/MIC of Drug B Alone). A synergistic interaction was defined as a FIC value of ≤0.5, an additive interaction as 0.5–1, no interaction as 1–4 and antagonistic interaction as FIC ≥ 4, as described.

Data set [5] deals with S. aureus strain UAMS-1. The data set is described as follows: Minimum inhibitory concentration (MIC) testing, CLSI broth microdilution. It is filed as cell-based, Staphylococcus aureus. The settings on record: Staphylococcus aureus, UAMS1. How it is done:
Staphylococcus aureus strains UAMS-1 is a well-characterized antibiotic susceptible osteomyelitis clinical isolate (Blevins Infect. Immun 2003). For experiments, UAMS-1 was cultured in Mueller Hinton (MH) broth and processed as described below. Escherichia coli strain BL21 (DE3) was cultured in Luria–Bertani (LB) and supplemented with ampicillin (50 µg ml^−1) where indicated.
Minimum inhibitory concentration (MIC) was performed according to the Clinical and Laboratory Standards Institute (CLSI) guidelines. Briefly, individual wells of a 96-well microtiter plate were inoculated with 10^4 colony forming units (CFU) of S. aureus UAMS-1 containing two-fold increasing concentrations (0 µM to 100 µM) of the indicated antibiotic or putative RnpA inhibitor and grown at 37 °C for 16 h in MH broth. The MIC was defined as the lowest concentration of compound in which there was no visible bacterial growth detected by the unaided eye.
For orientation: In broth dilution the organism is exposed to a series of concentrations in liquid medium.

The target of data set [6] is T1, RNase P (RnpA + rnpB) (Staphylococcus aureus, UniProt P0A0H5).
T1 construct: made in house; host or cells: E. coli BL21 (DE3)
T1 sequence (P0A0H5 1-117): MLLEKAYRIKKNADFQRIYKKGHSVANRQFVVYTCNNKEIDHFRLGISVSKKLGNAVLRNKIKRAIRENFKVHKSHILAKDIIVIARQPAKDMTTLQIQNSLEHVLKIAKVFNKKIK
The data set is described as follows: In vitro ptRNA^Tyr processing assay with reconstituted RNase P. Format: biochemical. Conditions: for IC50: average of at least two tests. The protocol: (§1) His-tagged RnpA was purified as previously described. E. coli BL21 (DE3) cells harboring plasmid pEXP5-nt containing a hexahistidine tag fused to the N-terminus of S.aureus RnpA coding region were grown in LB supplemented with 50 µg mL^−1 ampicillin to OD600 = 0.6 and induced with 1mM isopropyl β-D-1-thiogalactopyranoside (IPTG) for three hours to induce protein expression. […] Cells were mechanically lysed by three passes at 18,000 psi through a French Pressure Cell Press (SLM-Aminco; Pittsford, NY, USA) and cell debris was removed by centrifugation at 17,000× g for 10 min at 4 °C. Supernatants were collected, filtered through a 0.2 micron syringe filter, then loaded onto a 5 mL HisPur cobalt column (ThermoFisher Scientific, Waltham, MA, U.S.A.) using the BioRad Maximizer Duo-Flow Medium Pressure Chromatography System. Protein was eluted using an imidazole gradient (80 mM to 500 mM). Fractions were assessed for RnpA presence and purity via SDS-PAGE analysis, Coomassie staining and Western blotting using an anti-His antibody (Invitrogen; Grand Island, NY, USA).
rnpB and RNA substrates (spa, ptRNA^Tyr) for RnpA functional assays, as well as mature tRNA were synthesized in vitro, as previously described. Each gene was PCR amplified using S. aureus UAMS-1 chromosomal DNA as a template and the corresponding oligonucleotide primer pairs, in which the forward primers contained an RNA polymerase T7 promoter sequence. The following primer pairs were used in this study (T7 promoter underlined): T7-rnpB forward—[…] and rnpB reverse—[…]; T7-ptRNA^Tyr forward—[…] and ptRNA^Tyr reverse—TGGTGGAG GGGGGCAGATTC; T7-spa forward—[…] CGACGTCCAG and spa reverse—[…]. Resulting PCR products were analyzed on a 0.8% agarose gel and purified using the Qiagen QIAquick Gel Extraction kit, according to the manufacturer’s instructions. In vitro transcription was performed using the TranscriptAid T7 High Yield Transcription kit (Fermentas; Burlington, ON, Canada) following manufacturer’s instructions. Following in vitro transcription, the RNA was treated with DNase I for 90 min and re-purified using the Qiagen RNeasy Mini kit. RNA was quantified using a NanoDrop2000 spectrophotometer.
S.aureus Rnase P activity assays were performed as previously described. Briefly, ptRNA^Tyr and rnpB RNA was denatured by heating to 95 °C for 5 min then slow cooled to room temperature. RNA species were then combined with 2× low salt buffer (50 mM Tris-HCl pH 8.0, 5 mM MgCl2) and incubated for 5 min at 37 °C. Rnase P was reconstituted by mixing an equal molar ratio of His-RnpA and rnpB for 15 min at 37 °C. […] Then, 5 pmol ptRNA^Tyr was added to each reaction and incubated for an additional 30 min at 37 °C. Reactions were stopped with 2× RNA loading dye (Thermo Scientific) and heating to 65 °C for 10 min. Samples were electrophoresed on a 7M urea/8% polyacrylamide gel then stained with 0.5 µg mL^−1 ethidium bromide. The BioRad EZ Gel Doc imaging system was used to visualize the RNA and relative abundance of mature tRNA^Tyr in the DMSO control or in the samples containing compound and analyzed using BioRad Image Lab densitometry software. The percent inhibitory activity of each compound was calculated using the following equation: (% experimental processing/% processing negative control) × 100.

For data set [7], the target named is T2, S. aureus RnpA (Staphylococcus aureus, UniProt P0A0H5).
T2 construct: made in house; host or cells: E. coli BL21 (DE3)
T2 sequence (P0A0H5 1-117): T1 sequence (P0A0H5 1-117)
The data set is described as follows: In vitro RnpA mRNA degradation assay (RNase Alert FRET substrate). It is filed as biochemical. The protocol: as §1
RnpA-mediated degradation was assessed using the Rnase Alert QC System (Thermofisher Scientific). 20 pmol of His-RnpA was combined with 0.4 μM (final concentration) FRET substrate and either DMSO (negative control) or compound ≤500 µM in 1× Rnase Alert Buffer. Reactions were assembled in 96-well PCR plates (BioRad) and incubated at 37 °C for 30 min in the BioRad CFX 96 Connect Real Time instrument, measuring fluorescence every 2 min at 490 nm excitation/520 nm emission. Percent inhibition of each compound was calculated at the 30 min time-point based on the following formula: (RFU of compound treated RnpA/RFU of DMSO-treated RnpA) × 100.

“And” between values parts separate entries of the source, which are not always exact repeats. Equal values may be shown once. “Also recorded” adds a separate entry of the source. Read-outs that look alike come from different tables or passages of the source.

`CC1CCN(C(=O)Nc2cc(Cl)cc(Cl)c2)CC1` [JC1]: the “S. aureus MIC” value in data set [1] was 3.4 µM.

The MIC is the lowest concentration found to suppress growth. `O=C(Nc1ccc(Cl)cc1)c1c(NC(=O)C(F)(F)F)sc2c1CCCCC2` [JR1]: the “S. aureus MIC” value in data set [1] is 1.25 µM. Further, the MIC in data set [2] was 1.25 µM and 0.52 µg/mL.

What is called viability is a read-out of living cells in per cent, often relative to untreated cells. A higher viability goes with better survival. In the case of `CO[C@@]12[C@H](COC(N)=O)C3=C(C(=O)C(C)=C(N)C3=O)N1C[C@@H]1N[C@@H]12` [Mitomycin C, reference compound], the viability at 400 µM in data set [3] stood at 54.8%.

`C/C(=C\C(=O)OCCCCCCCCC(=O)O)C[C@@H]1OC[C@H](C[C@@H]2O[C@H]2[C@@H](C)[C@H](C)O)[C@@H](O)[C@H]1O` [Mup, mupirocin, reference compound]: the MIC in data set [4] (UAMS1, mupirocin alone, read-out: Mup MIC, Dosed-Individually) was 0.5 µM.

As a reminder, the IC50 is the concentration that inhibits the measured activity by half. For `O=C(Nc1cccc(Cl)c1)c1c(NC(=O)C(F)F)sc2c1CCCCC2` [RNP0017], the MIC in data set [5] (S. aureus strain UAMS-1, read-out: MIC) is greater than 200 µg/mL; in data set [4] (UAMS1, compound alone, read-out: Cpd MIC, Dosed-Individually) it was greater than 500 µM. In addition, in data set [6], the “Inhibition of in vitro RnpA ptRNA processing (in words)” value is given as “did not appear to display any inhibition; also recorded: weak or no inhibitory activity”. In addition, the IC50 in data set [6] (in vitro ptRNA^Tyr processing, read-out: ptRNA IC50) was greater than 250 µM; in data set [7] (in vitro RnpA-mediated RNA degradation, read-out: mRNA IC50) it was 43 µM. The “Inhibition of in vitro RnpA-mediated RNA degradation (in words)” value in data set [7] was “exhibited inhibitory activity”.

`O=C(CF)Nc1sc2c(c1C(=O)Nc1cccc(Cl)c1)CCCCC2` [RNP0018]: the MIC is greater than 200 µg/mL in data set [5] and greater than 500 µM in data set [4] (UAMS1, read-out: Cpd MIC, Dosed-Individually). For the same molecule, in data set [6], the “Inhibition of in vitro RnpA ptRNA processing (in words)” value was “good inhibitory properties”. The IC50 in data set [6] (ptRNA IC50, in vitro ptRNA^Tyr processing) is 58 µM; in data set [7], 33 µM. Besides, the “Inhibition of in vitro RnpA-mediated RNA degradation (in words)” value in data set [7] is “good inhibitory properties; also recorded: exhibited inhibitory activity”.

On to `Cc1cc(/C=C(/C#N)C(=O)Nc2cccc(Br)c2)c(C)n1-c1ccc(C(=O)O)cc1` [RNP1000], for which, in data set [1], the “S. aureus MIC” value is 34 to 69 µM.
